The test system of one test is Streptococcus pyogenes. Nature of the test: Antimicrobial activity against Streptococcus pyogenes MB-3124. The format is functional.
The test system of another test is Staphylococcus aureus. Nature of the test: Antimicrobial activity against Staphylococcus aureus MB-2865. The format is functional.

Molecules are shown by their SMILES. In brackets after ≈: the same amount, converted by molar mass.

As for `CCOC(=O)C1CC(C2=C(C(=O)OC(c3ccccc3)c3ccccc3)N3C(=O)[C@@H](NC(=O)Cc4cccs4)[C@H]3SC2)=NN1` (stereo partly specified), in the test with Streptococcus pyogenes, the MIC (commonly the smallest concentration in the dilution series that meets the test's criterion for growth inhibition) is less than 0.39 µg/mL.
Consider `O=CC1=C(C(=O)OC(c2ccccc2)c2ccccc2)N2C(=O)[C@@H](NC(=O)Cc3cccs3)[C@H]2SC1`, for which, in the test with Streptococcus pyogenes, the MIC is less than 0.39 µg/mL.
On to `COC(=O)c1cc(C2=C(C(=O)OC(c3ccccc3)c3ccccc3)N3C(=O)[C@@H](NC(=O)Cc4cccs4)[C@H]3SC2)nn1C`, for which the MIC against Streptococcus pyogenes was less than 0.39 µg/mL.
On the same count and under the same terms, to `Cc1ccc(S(=O)(=O)N(C)/N=C/C2=C(C(=O)OC(c3ccccc3)c3ccccc3)N3C(=O)[C@@H](NC(=O)Cc4cccs4)[C@H]3SC2)cc1` belongs less than 0.39 µg/mL.
On to `COC(=O)CO/N=C/C1=C(C(=O)OC(c2ccccc2)c2ccccc2)N2C(=O)[C@@H](NC(=O)Cc3cccs3)[C@H]2SC1`, for which, in the test with Streptococcus pyogenes, the MIC is less than 0.39 µg/mL.
For `Cc1ccc(S(=O)(=O)N(C)/N=C/C2=C(C(=O)O)N3C(=O)[C@@H](NC(=O)Cc4cccs4)[C@H]3SC2)cc1`, the MIC in the test on Staphylococcus aureus and against Streptococcus pyogenes was less than 0.39 µg/mL throughout.
In the test with Streptococcus pyogenes, `O=C(Cc1cccs1)N[C@@H]1C(=O)N2C(C(=O)OC(c3ccccc3)c3ccccc3)=C(/C=N/Nc3ccc([N+](=O)[O-])cc3)CS[C@H]12` showed an MIC of less than 0.39 µg/mL.
With `O=C(Cc1cccs1)N[C@@H]1C(=O)N2C(C(=O)O)=C(/C=N/O)CS[C@H]12`, the MIC with Staphylococcus aureus and against Streptococcus pyogenes was less than 0.39 µg/mL in each case.
With `COC(=O)c1cc(C2=C(C(=O)O)N3C(=O)[C@@H](NC(=O)Cc4cccs4)[C@H]3SC2)n[nH]1`, the MIC in the test with Staphylococcus aureus was 3.12 µg/mL (≈ 6.96 µM); in the test with Streptococcus pyogenes, less than 0.39 µg/mL.
For `O=C(Cc1cccs1)N[C@@H]1C(=O)N2C(C(=O)O)=C(c3cc(-c4ccccc4)on3)CS[C@H]12`, the MIC with Staphylococcus aureus and with Streptococcus pyogenes was less than 0.39 µg/mL throughout.
`CCOC(=O)N/N=C/C1=C(C(=O)OC(c2ccccc2)c2ccccc2)N2C(=O)[C@@H](NC(=O)Cc3cccs3)[C@H]2SC1` displayed an MIC in the test with Streptococcus pyogenes of less than 0.39 µg/mL.
The compound `O=C(Cc1cccs1)N[C@@H]1C(=O)N2C(C(=O)OC(c3ccccc3)c3ccccc3)=C(/C=N/O)CS[C@H]12` displayed an MIC against Streptococcus pyogenes of less than 0.39 µg/mL.
Still for that read-out and setting: in the case of `O=C(Cc1cccs1)N[C@@H]1C(=O)N2C(C(=O)OC(c3ccccc3)c3ccccc3)=C(/C=N/NC(=O)c3ccccc3)CS[C@H]12` it was less than 0.39 µg/mL.
The compound `COC(=O)C1=C(/C=N/N(C)S(=O)(=O)c2ccc(C)cc2)CS[C@@H]2[C@H](NC(=O)Cc3cccs3)C(=O)N12` displayed an MIC with Streptococcus pyogenes of less than 0.39 µg/mL.
The compound `COC(=O)C1=C(/C=N/O)CS[C@@H]2[C@H](NC(=O)Cc3cccs3)C(=O)N12` showed an MIC against Streptococcus pyogenes of less than 0.39 µg/mL.
Regarding `O=C(Cc1cccs1)N[C@@H]1C(=O)N2C(C(=O)OC(c3ccccc3)c3ccccc3)=C(c3nn[nH]c3C(F)(F)F)CS[C@H]12`, the MIC in the test on Streptococcus pyogenes was less than 0.39 µg/mL.
`Cc1ccc(S(=O)(=O)[N-]/N=C/C2=C(C(=O)OC(c3ccccc3)c3ccccc3)N3C(=O)[C@@H](NC(=O)Cc4cccs4)[C@H]3SC2)cc1.[Li+]`: the MIC against Streptococcus pyogenes was less than 0.39 µg/mL.
In the case of `CO/N=C/C1=C(C(=O)OC(c2ccccc2)c2ccccc2)N2C(=O)[C@@H](NC(=O)Cc3cccs3)[C@H]2SC1`, in the test with Streptococcus pyogenes, the MIC was less than 0.39 µg/mL.
On to `O=C(Cc1cccs1)N[C@@H]1C(=O)N2C(C(=O)OC(c3ccccc3)c3ccccc3)=C(C#[N+][O-])CS[C@H]12`, for which the MIC with Streptococcus pyogenes is less than 0.39 µg/mL.
Still for that read-out and setting: in the case of `[N-]=[N+]=CC1=C(C(=O)OC(c2ccccc2)c2ccccc2)N2C(=O)[C@@H](NC(=O)Cc3cccs3)[C@H]2SC1` it was less than 0.39 µg/mL.
As for `N#CC1=C(C(=O)O)N2C(=O)[C@@H](NC(=O)Cc3cccs3)[C@H]2SC1`, the results for the MIC against Staphylococcus aureus and with Streptococcus pyogenes were 0.78 µg/mL (≈ 2.23 µM) and less than 0.39 µg/mL, respectively.
The corresponding values for `COC(=O)CO/N=C/C1=C(C(=O)O)N2C(=O)[C@@H](NC(=O)Cc3cccs3)[C@H]2SC1` are 12.5 µg/mL (≈ 28.4 µM) and less than 0.39 µg/mL.
On to `N#CC1=C(C(=O)OC(c2ccccc2)c2ccccc2)N2C(=O)[C@@H](NC(=O)Cc3cccs3)[C@H]2SC1`, for which, in the test on Streptococcus pyogenes, the MIC is less than 0.39 µg/mL.
On the same count and under the same terms, in the case of `COC(=O)C1=C(c2cc(C(=O)OC)n(C)n2)CS[C@@H]2[C@H](NC(=O)Cc3cccs3)C(=O)N12` it was less than 0.39 µg/mL; in that of `Cc1ccc(S(=O)(=O)N/N=C/C2=C(C(=O)OC(c3ccccc3)c3ccccc3)N3C(=O)[C@@H](NC(=O)Cc4cccs4)[C@H]3SC2)cc1`, less than 0.39 µg/mL.
On to `COC(=O)c1cc(C2=C(C(=O)O)N3C(=O)[C@@H](NC(=O)Cc4cccs4)[C@H]3SC2)nn1C`, for which the values for the MIC against Staphylococcus aureus and with Streptococcus pyogenes were 0.78 µg/mL (≈ 1.69 µM) and less than 0.39 µg/mL, respectively.
`COC(=O)C1=C(c2cc(-c3ccccc3)on2)CS[C@@H]2[C@H](NC(=O)Cc3cccs3)C(=O)N12` gave an MIC in the test with Streptococcus pyogenes of less than 0.39 µg/mL.
Still for that read-out and setting: to `COC(=O)c1cc(C2=C(C(=O)OC(c3ccccc3)c3ccccc3)N3C(=O)[C@@H](NC(=O)Cc4cccs4)[C@H]3SC2)n[nH]1` belongs less than 0.39 µg/mL; to `O=C(O)CO/N=C/C1=C(C(=O)OC(c2ccccc2)c2ccccc2)N2C(=O)[C@@H](NC(=O)Cc3cccs3)[C@H]2SC1`, less than 0.39 µg/mL.
On the same count and under the same terms, in the case of `COC(=O)c1[nH]nc(C2=C(C(=O)OC(c3ccccc3)c3ccccc3)N3C(=O)[C@@H](NC(=O)Cc4cccs4)[C@H]3SC2)c1C(=O)OC` it was less than 0.39 µg/mL; in that of `O=C(Cc1cccs1)N[C@@H]1C(=O)N2C(C(=O)OC(c3ccccc3)c3ccccc3)=C(c3cc(-c4ccccc4)on3)CS[C@H]12`, less than 0.39 µg/mL; in that of `O=C(Cc1cccs1)N[C@@H]1C(=O)N2C(C(=O)OC(c3ccccc3)c3ccccc3)=C(/C=N/OCc3ccccc3)CS[C@H]12`, less than 0.39 µg/mL.
For `CC(=O)N/N=C/C1=C(C(=O)OC(c2ccccc2)c2ccccc2)N2C(=O)[C@@H](NC(=O)Cc3cccs3)[C@H]2SC1`, in the test with Streptococcus pyogenes, the MIC is less than 0.39 µg/mL.
Consider `COC(=O)CO/N=C/C1=C(C(=O)OC)N2C(=O)[C@@H](NC(=O)Cc3cccs3)[C@H]2SC1`, for which, in the test on Streptococcus pyogenes, the MIC is less than 0.39 µg/mL.

Values taken from ChEMBL document CHEMBL3272040, “3-Cyanocephems, and carbon-3 heterocyclic-substituted cephems via 1,3-dipolar cycloadditions” (1976).
